The values that follow are results of earlier work, collected in US20090239872A1, “TREATMENT OF MESOTHELIOMA” (priority 2002, published 2009).

Targets include c-Kit (Homo sapiens, UniProt P10721); Flt-1 (Homo sapiens, UniProt P17948); Flt-4 (Homo sapiens, UniProt P35916).
What all share (conditions): qualitative statement

Chain of c-Kit (P10721 26-976): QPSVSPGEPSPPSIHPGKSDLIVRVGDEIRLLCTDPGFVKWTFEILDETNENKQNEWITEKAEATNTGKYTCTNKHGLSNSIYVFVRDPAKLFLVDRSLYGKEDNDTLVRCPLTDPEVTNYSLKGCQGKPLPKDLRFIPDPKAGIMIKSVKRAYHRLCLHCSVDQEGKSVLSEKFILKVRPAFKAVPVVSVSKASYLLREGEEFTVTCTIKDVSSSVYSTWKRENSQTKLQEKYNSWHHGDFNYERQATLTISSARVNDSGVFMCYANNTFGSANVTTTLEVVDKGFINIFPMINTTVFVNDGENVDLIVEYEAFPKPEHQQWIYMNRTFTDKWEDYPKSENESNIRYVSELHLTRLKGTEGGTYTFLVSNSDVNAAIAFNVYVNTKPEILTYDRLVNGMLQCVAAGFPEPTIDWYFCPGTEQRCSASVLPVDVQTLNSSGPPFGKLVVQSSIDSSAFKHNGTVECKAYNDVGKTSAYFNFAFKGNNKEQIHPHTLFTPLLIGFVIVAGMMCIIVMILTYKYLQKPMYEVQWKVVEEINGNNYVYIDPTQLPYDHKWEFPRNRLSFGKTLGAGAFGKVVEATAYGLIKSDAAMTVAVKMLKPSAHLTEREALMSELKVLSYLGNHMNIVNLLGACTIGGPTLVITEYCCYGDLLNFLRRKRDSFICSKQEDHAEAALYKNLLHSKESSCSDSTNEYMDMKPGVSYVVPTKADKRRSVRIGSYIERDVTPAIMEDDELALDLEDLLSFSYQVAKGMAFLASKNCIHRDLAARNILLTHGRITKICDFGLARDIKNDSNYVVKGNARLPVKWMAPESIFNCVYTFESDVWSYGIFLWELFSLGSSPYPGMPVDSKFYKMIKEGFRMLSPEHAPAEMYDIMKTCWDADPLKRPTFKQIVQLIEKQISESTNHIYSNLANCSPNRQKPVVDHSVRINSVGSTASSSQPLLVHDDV
Chain of Flt-4 (P35916 25-1363, species assumed): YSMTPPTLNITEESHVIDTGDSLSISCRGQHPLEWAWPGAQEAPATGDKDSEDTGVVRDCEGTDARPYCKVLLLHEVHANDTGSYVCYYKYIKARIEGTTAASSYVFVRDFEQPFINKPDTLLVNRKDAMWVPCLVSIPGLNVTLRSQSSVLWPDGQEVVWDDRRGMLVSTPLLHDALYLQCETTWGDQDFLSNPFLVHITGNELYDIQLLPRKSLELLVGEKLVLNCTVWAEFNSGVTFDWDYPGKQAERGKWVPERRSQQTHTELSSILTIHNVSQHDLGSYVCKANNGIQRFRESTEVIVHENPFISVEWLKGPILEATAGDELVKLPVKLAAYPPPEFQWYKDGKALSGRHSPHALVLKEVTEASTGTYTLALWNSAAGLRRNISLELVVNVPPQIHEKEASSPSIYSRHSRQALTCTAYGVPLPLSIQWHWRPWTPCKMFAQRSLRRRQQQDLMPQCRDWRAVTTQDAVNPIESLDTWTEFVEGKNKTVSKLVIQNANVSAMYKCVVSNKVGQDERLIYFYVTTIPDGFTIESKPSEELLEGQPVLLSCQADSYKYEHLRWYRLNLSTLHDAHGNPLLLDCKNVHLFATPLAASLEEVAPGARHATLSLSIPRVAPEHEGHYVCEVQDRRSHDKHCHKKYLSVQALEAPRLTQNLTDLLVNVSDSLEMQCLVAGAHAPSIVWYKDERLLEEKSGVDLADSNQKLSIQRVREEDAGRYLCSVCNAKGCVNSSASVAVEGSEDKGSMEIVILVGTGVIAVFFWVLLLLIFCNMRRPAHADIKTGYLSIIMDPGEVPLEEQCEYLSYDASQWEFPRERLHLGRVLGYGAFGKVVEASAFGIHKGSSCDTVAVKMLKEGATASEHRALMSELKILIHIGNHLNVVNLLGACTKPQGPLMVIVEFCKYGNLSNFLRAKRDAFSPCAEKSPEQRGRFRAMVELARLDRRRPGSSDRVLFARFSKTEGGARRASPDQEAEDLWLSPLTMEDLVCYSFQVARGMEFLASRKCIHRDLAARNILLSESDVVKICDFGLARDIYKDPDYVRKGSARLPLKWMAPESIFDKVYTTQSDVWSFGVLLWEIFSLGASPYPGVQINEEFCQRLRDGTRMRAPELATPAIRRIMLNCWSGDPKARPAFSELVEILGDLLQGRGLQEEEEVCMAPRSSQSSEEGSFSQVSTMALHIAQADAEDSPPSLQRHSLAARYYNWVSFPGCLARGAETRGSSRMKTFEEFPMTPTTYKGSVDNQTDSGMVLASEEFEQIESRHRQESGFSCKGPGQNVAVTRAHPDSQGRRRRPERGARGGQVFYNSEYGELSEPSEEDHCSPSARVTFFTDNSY
Chain of Flt-1 (P17948 27-1338, species assumed): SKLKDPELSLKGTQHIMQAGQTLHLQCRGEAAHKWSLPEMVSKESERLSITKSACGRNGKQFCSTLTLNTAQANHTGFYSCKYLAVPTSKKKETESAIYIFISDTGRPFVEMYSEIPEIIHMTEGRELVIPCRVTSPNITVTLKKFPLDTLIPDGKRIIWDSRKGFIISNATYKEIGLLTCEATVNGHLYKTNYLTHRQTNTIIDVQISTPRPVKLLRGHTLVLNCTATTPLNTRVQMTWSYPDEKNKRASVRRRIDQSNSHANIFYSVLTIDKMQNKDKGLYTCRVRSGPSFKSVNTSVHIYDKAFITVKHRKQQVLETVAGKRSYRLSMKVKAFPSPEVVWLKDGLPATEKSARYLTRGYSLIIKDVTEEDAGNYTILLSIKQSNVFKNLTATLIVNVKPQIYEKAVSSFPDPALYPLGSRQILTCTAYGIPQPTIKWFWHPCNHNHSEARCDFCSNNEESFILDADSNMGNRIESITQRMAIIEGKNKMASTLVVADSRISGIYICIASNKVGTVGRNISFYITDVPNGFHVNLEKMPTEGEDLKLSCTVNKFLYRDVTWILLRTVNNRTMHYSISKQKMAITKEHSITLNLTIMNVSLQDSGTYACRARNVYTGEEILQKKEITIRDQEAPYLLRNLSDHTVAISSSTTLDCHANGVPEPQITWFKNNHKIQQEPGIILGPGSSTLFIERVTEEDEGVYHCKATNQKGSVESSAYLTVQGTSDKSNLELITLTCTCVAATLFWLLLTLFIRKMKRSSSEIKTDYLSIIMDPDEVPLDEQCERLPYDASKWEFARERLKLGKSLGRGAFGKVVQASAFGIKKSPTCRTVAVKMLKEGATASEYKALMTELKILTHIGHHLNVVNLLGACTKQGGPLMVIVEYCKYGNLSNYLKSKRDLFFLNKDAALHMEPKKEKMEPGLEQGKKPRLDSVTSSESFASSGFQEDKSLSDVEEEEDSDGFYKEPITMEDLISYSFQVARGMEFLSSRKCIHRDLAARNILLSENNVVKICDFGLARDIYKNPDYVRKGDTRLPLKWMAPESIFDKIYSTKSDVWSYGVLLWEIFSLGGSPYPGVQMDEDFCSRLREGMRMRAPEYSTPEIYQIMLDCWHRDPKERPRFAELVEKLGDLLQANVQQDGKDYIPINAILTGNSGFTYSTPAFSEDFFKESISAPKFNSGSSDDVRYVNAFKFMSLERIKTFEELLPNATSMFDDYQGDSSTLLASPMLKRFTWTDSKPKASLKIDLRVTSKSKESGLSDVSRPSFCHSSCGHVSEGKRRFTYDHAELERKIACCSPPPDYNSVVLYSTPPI

Consider `Clc1ccc(Nc2nnc(Cc3ccncc3)c3ccccc23)cc1` [ZK222584, 1-(4-chloroanilino)-4-(4-pyridylmethyl)phthalazine], for which the “activity against c-Kit” value at c-Kit was “has activity”. The “inhibition of Flt-1” value at Flt-1 is “can also inhibit”. The “inhibition of Flt-4” value on Flt-4 is “can also inhibit”.
